# Reference: US20260146232A1, “METHODS FOR PROMOTING HOMING AND ENGRAFTMENT OF HEMATOPOIETIC STEM CELLS” (The Trustees of Indiana University, priority 2022, published 2026)
# Legend:
# [1] = test system: CXCR4; test: Surface CXCR4 protein level (MFI) by flow cytometry; assay type: cell-based, human; settings: for effect of FTO inhibitor on AGII-induced CXCR4 upregulation: AGII-treated cells plus FTO inhibitor; for CXCR4 expression (MFI of cell surface CXCR4 protein level): human CB CD34+ cells treated 20 h, screen 10 μM unless otherwise stated; for effect of inhibition of mir-145 (sh-mir-145) on compound-induced CXCR4 expression: human CB CD34+ cells treated with compound and sh-mir-145
# Description: (§1) Human CD34^+ CB cell collection and culture. Umbilical CB units were supplied by Cleveland Cord Blood Bank and CordUse, Orlando, FL, USA. All studies were approved by the institutional review board of the IUSM. Mononuclear cells were isolated by density gradient centrifugation and CD34^+ cells were isolated by immunomagnetic selection kit (Miltenyi Biotec, 130-046-702). […] For molecular compound treatment, all reagents were ordered from Cayman Chemical (Ann Arbor, MI, USA). Briefly, molecular compounds were added in the initiation of human CB CD34^+ cells culture, the time and concentration of each molecular compound for cell treatment was shown in figure legends.
# Flow cytometry. Fresh or cultured CB cells were sorted for different phenotypes by using the following antibodies. Antibodies were used to detect CD34 (BV786, BD Biosciences, 744741), CD34 (FITC, BD Biosciences, 340668), CD45RA (Taxe-red, BD Biosciences, 562298), CD90 (BV421, BD Biosciences, 562556), CD49f (cy5.5, BD Biosciences, 562495), CD38 (PE, BD Biosciences, 560981). CD3 (BV421, BD Biosciences, 562427), CD33 (PE, BD Biosciences, 555450), CD19 (PE, BD Biosciences, 555413), CXCR4 (APC, BD Biosciences, 555976) and CD45 (APC, BD Biosciences, 555485). Gating strategy of phenotypic HSCs were shown in supplementary FIG. 2B.
# [2] = test system: human CB CD34+ cells; test: Chemotaxis (transwell migration) assay toward SDF-1, CB CD34+ cells; assay type: cell-based; settings: for chemotaxis of human CB CD34+ cells toward SDF-1: 20 h
# Description: (§2) Chemotaxis assay. Chemotaxis assays were performed in Costar 24-well trans-well plates with 6.5 mm diameter inserts with 5.0 μm pores (Corning, NY, USA). Briefly, 650 μL of IMDM medium (37° C.) that contained 0.5% bovine serum albumin (Sigma-Aldrich) and SDF-1 (0, 50 ng/mL) was added to the bottom well. Cells were suspended at 1×10^5 cells/100 μL in IMDM medium and loaded to the upper chamber of the trans-well. Trans-well plates were placed in a 37° C. incubator with 95% humidity and 5% CO2 for 4 hours. Percent migration was measured using flow cytometry with number of cells in the bottom chamber divided by number of cells placed in the upper chamber. To calculate the percent migration of CB HSCs, phenotypic HSCs was determined by surface staining and flow cytometry analysis. Human CB HSC chemotaxis was calculated as number of HSCs in the bottom chamber divided by number of HSCs loaded in the upper chamber. For AMD3100 administration, cells were treated with 5 μg/mL AMD3100 (239820, Sigma-Aldrich) for 30 min right before the chemotaxis assay.
# [3] = test system: human CB CD34+ cells; test: Long-term engraftment / limiting dilution analysis (LDA) in NSG mice; assay type: in vivo; settings: for engraftment in NSG mice vs vehicle control (human CD45+ cells in BM): 20 h, 4 months after transplantation; for human myeloid and B-cell chimerism in BM: 10,000 CB CD34+ cells; for engraftment in secondary recipients vs vehicle: secondary NSG mice at 4 months; for SRC frequency (Poisson distribution analysis): vehicle 1/4761
# Description: Limiting dilution analysis (LDA). Frequency of human SCID repopulating cells (SRCs) was determined by LDA as reported before. Increasing doses of GFP overexpressing CD34^+ cells (2500, 5000 or 10000 cells) were intravenously injected into sublethally irradiated NSG recipient mice (350 cGy; 137Cs source, single dose). Four months after transplantation, the percentage of GFP^+ human CD45^+ cell chimerism was analyzed by immunostaining and flow cytometry. For long-term engraftment assays that assess the self-renewal capacity of HSC, 3×10^6 BM cells from primary recipients of the 10000-cell group were intravenously transplanted into secondary sub-lethally irradiated NSG recipient mice.
# [4] = test system: phenotypic HSC (CD34+ CD38- CD45RA- CD90+ CD49f+); test: Chemotaxis (transwell migration) assay toward SDF-1, phenotypic HSCs; assay type: cell-based, human; settings: 20 h
# Description: as §2
# [5] = test system: CB CD34+ cells; test: Colony-forming unit (CFU) assay; assay type: cell-based, human; settings: 20 h
# [6] = test system: YTHDF2; test: Relative YTHDF2 expression level in human CB CD34+ cells; assay type: cell-based; settings: human CB CD34+ cells treated 20 hours
# Description: as §1
# RNA extraction and real-time PCR. After cells were harvested by FACS, RNA was extracted by a RNeasy Mini Kit following manufacturer's protocol (Qiagen, 74106). Total RNA was reverse-transcribed by use of Superscript III kit (ThermoFisher, 18080093). Quantitative real-time PCR reactions were performed by SYBR Green PCR Master Mix (Thermo Fisher, Florence, KY, USA) and an Agilent Mx3000P QPCR System. Expression of housekeeping gene GAPDH was used as an internal control. Data are shown as relative mRNA level normalized to levels in vehicle control, set to 1.
# [7] = test system: mir-145; test: Relative mir-145 expression level in human CB CD34+ cells; assay type: cell-based; settings: human CB CD34+ cells treated 20 hours
# Description: Human CD34^+ CB cell collection and culture. Umbilical CB units were supplied by Cleveland Cord Blood Bank and CordUse, Orlando, FL, USA. All studies were approved by the institutional review board of the IUSM. Mononuclear cells were isolated by density gradient centrifugation and CD34^+ cells were isolated by immunomagnetic selection kit (Miltenyi Biotec, 130-046-702). […] For molecular compound treatment, all reagents were ordered from Cayman Chemical (Ann Arbor, MI, USA). Briefly, molecular compounds were added in the initiation of human CB CD34^+ cells culture, the time and concentration of each molecular compound for cell treatment was shown in figure legends. RNA extraction and real-time PCR. After cells were harvested by FACS, RNA was extracted by a RNeasy Mini Kit following manufacturer's protocol (Qiagen, 74106). Total RNA was reverse-transcribed by use of Superscript III kit (ThermoFisher, 18080093). Quantitative real-time PCR reactions were performed by SYBR Green PCR Master Mix (Thermo Fisher, Florence, KY, USA) and an Agilent Mx3000P QPCR System. Expression of housekeeping gene GAPDH was used as an internal control. Data are shown as relative mRNA level normalized to levels in vehicle control, set to 1.
# [8] = test system: human CB CD34+ cells; test: Homing assay of treated human CB CD34+ cells in NSG mice; assay type: in vivo; settings: Raloxifene 40 μM, 20 h; 500,000 cells; 24 h after transplantation
# Description: Homing assay. Homing of human CB CD34^+ cells was evaluated in NSG mice. Molecular compounds treated or siRNA transfected human CB CD34+ cells (500,000 for each mouse) were intravenously injected into sub-lethally irradiated (350 cGy) NSG mice. After 24 h, these recipient mice were sacrificed, BM cells from each mouse were collected. Cells were stained with anti-human CD45 antibody, then resuspended in 1% formaldehyde buffer. Flow cytometry analysis was performed to determine the percentage of human CD45^+ cells. BM cells from non-transplanted NSG mice served as negative controls.
compound,measurement,setting,value
Cc1ccc(Cl)c(Nc2ccccc2C(=O)O)c1Cl [Meclofenamic Acid],effect of FTO inhibitor on AGII-induced CXCR4 upregulation,[1],repressed
Cc1ccc(NC(=O)c2ccc(CN3CCN(C)CC3)cc2)cc1Nc1nccc(-c2cccnc2)n1 [Imatinib],chemotaxis of human CB CD34+ cells toward SDF-1,[2]; Imatinib 10 μM,significantly enhanced
same,engraftment in NSG mice vs vehicle control (human CD45+ cells in BM),[3]; Imatinib 10 μM,significantly elevated
same,human myeloid and B-cell chimerism in BM,[3]; Imatinib-treated cells,increased
same,engraftment in secondary recipients vs vehicle,[3]; Imatinib-treated cells,Enhanced engraftment
same,SRC frequency (Poisson distribution analysis),[3]; Imatinib-treated cells,1/1406
same,migration to SDF-1 in phenotypic HSC population,[4]; Imatinib 10 μM,Enhanced migration
same,colony output vs control group,[5]; Imatinib 10 μM,no significant difference
O=C(c1ccc(OCCN2CCCCC2)cc1)c1c(-c2ccc(O)cc2)sc2cc(O)ccc12 [Raloxifene],YTHDF2 expression,[6],downregulated
same,chemotaxis of human CB CD34+ cells toward SDF-1,[2]; Raloxifene 40 μM,significantly enhanced
same,engraftment in NSG mice vs vehicle control (human CD45+ cells in BM),[3]; Raloxifene 40 μM,significantly elevated
same,human myeloid and B-cell chimerism in BM,[3]; Raloxifene-treated cells,increased
same,engraftment in secondary recipients vs vehicle,[3]; Raloxifene-treated cells,Enhanced engraftment
same,SRC frequency (Poisson distribution analysis),[3]; Raloxifene-treated cells,1/1818
same,migration to SDF-1 in phenotypic HSC population,[4]; Raloxifene 40 μM,Enhanced migration
same,colony output vs control group,[5]; Raloxifene 40 μM,no significant difference
same,mir-145 expression,[7],strongly upregulated
same,homing efficiency (human CD45+ cells in BM),[8],dramatically increased
same,CXCR4 expression (MFI of cell surface CXCR4 protein level),[1],strongly upregulated
same,effect of inhibition of mir-145 (sh-mir-145) on compound-induced CXCR4 expression,[1],significantly blocked
CC#CCC(C)[C@H](O)/C=C/[C@@H]1[C@H]2C/C(=C/CCCC(=O)O)C[C@H]2C[C@H]1O (some centres unmarked) [Iloprost],YTHDF2 expression,[6],downregulated
same,mir-145 expression,[7],strongly upregulated
same,CXCR4 expression (MFI of cell surface CXCR4 protein level),[1],strongly upregulated
same,effect of inhibition of mir-145 (sh-mir-145) on compound-induced CXCR4 expression,[1],did not affect
Cc1noc(C)c1-c1cc(Cl)c(Nc2ccccc2C(=O)NO)c(Cl)c1 [FB23-2],effect of FTO inhibitor on AGII-induced CXCR4 upregulation,[1],repressed
C[C@@H]1C[C@H]2[C@@H]3CCC4=CC(=O)C=C[C@]4(C)[C@@]3(Cl)[C@@H](O)C[C@]2(C)[C@@]1(O)C(=O)CCl [Mometasone],YTHDF2 expression,[6],downregulated
same,mir-145 expression,[7],strongly upregulated
same,CXCR4 expression (MFI of cell surface CXCR4 protein level),[1],strongly upregulated
same,effect of inhibition of mir-145 (sh-mir-145) on compound-induced CXCR4 expression,[1],did not affect
c1cc(CN2CCCNCCNCCCNCC2)ccc1CN1CCCNCCNCCCNCC1 [AMD3100],blocking of Raloxifene- and Imatinib-enhanced chemotaxis toward SDF-1,[2]; 5 μg/mL AMD3100 for 30 min before the chemotaxis assay,fully blocked
same,blocking of AGII-enhanced migration toward SDF-1,"[2]; AMD3100 5 μg/mL for 30 min before assay, AGII-treated cells",blocked
same,blocking of chemotaxis of human CB CD34+ cells to SDF-1,"[2]; AMD3100, Control or si-YTHDF2 transfected cells",blocked
